These results are taken from US20230234917A1, “ASPARAGINE DERIVATIVES AND METHODS OF USING SAME” (priority 2020, published 2023).

Assay [1] has as its target Full-length WT ClbP (Escherichia coli, UniProt Q0P7K6). Put plainly: ClbP molecular (purified protein) enzymatic inhibition assay, fluorogenic substrate. Format: biochemical, E. coli. The method, then:
ClbP Molecular (Purified Protein) Assay
1) Full-length WT ClbP was thawed on ice. A diluted enzyme solution (2 nM) was made by mixing 3.57 μL of enzyme with 20 mL of reaction buffer (50 mM Tris pH 8.0, 200 mM NaCl, 0.02% (w/v) n-dodecyl-b-D-maltoside (DDM)).
2) In a 96 well plate, the diluted protein solution (73.5 μL) was mixed with inhibitor (1.5 μL, of varying concentrations, see below) and preincubated for 15 min at room temperature. Then, reaction buffer (75 μL) containing 10 μM fluorogenic substrate was added to initiate the reaction. After addition of substrate, the final concentrations were 1 nM full-length WT ClbP, 5 μM fluorogenic substrate in 50 mM Tris pH 8.0, 200 mM NaCl, 0.02% (w/v) DDM, with either 0, 0.14, 0.41, 1.2, 3.7, 11, 33, or 100 μM inhibitor. For all conditions, the DMSO carryover was 2% (v/v) at the preincubation stage and 1% in the reaction stage. Compound No. III was always present as a control in each plate, and all compounds were tested in singlicate. In previous assays, the Km of the fluorogenic substrate was determined to be approximately 5 μM.
3) Immediately after addition of substrate to enzyme, the plate was transferred into a spectrophotometer held at room temperature. The fluorescence was recorded every 1.5 min for 15 min. The excitation wavelength was 360 nm (20 nm bandwidth), the emission wavelength was 440 nm (20 nm bandwidth), the optics position was bottom, the gain was extended, the light source was a xenon flash lamp, and the read speed was normal.
4) The linear portion of the fluorescence increase is at least from 0-6 min, so this time regime is used. The rate of fluorescence increase (A.U./min) for each well in an inhibitor series was normalized to the 0 μM inhibitor condition. The normalized activity as a function of inhibitor concentration was then fit to a three parameter IC50 curve in Graphpad Prism.
(§1) “A” indicates an IC50 value less than 100 μM, “B” indicates an IC50 between 100 and 300 μM, “C” indicates an IC50 above 300 μM.

Assay [2] addresses T1, ClbP (Escherichia coli, UniProt Q0P7K6). Kind of assay: ClbP cell lysate activity (inhibition) assay, fluorogenic substrate. The format is biochemical. The following applies: ClbP Lysate Inhibition Assay: IC50, E. coli ClbP+ lysozyme-EDTA lysates, 5 μM fluorogenic substrate, inhibitor 0-300 μM, 37° C., singlicate. Here is the method: Cell Lysate Activity Assay
(§2) 1) E. coli ClbP+ were taken from a frozen stock and streaked onto BHI plates. They were grown aerobically at 37° C. overnight in the incubator.
(§3) 1) A single colony was selected from the plate and inoculated into 30 mL LB in a 50 mL conical vial eight times (240 mL total). The bacteria were grown aerobically overnight (16-20 h) at 37° C. on a nutator with rocking.
1) The saturated overnight culture was centrifuged to create a firm pellet (3,200 g, 10 min, 4° C.). The supernatant was removed and then the pellet was resuspended in 30 mL sterile PBS.
2) The bacteria were centrifuged again (3,200 g, 10 min, 4° C.). The supernatant was removed, and the pellet was resuspended in sterile PBS buffer (3 mL) in each 8 tubes to make a tenfold concentrated bacterial solution.
3) A lysozyme-EDTA (LE) solution was made in ddH2O (0.05 mg/mL lysozyme, 0.25 M EDTA).
4) For each of the eight tubes, LE solution (3 mL) was mixed with concentrated bacterial solution (3 mL). This mixture was incubated at 37° C. for 30 min to generate the lysates.
5) The lysates (192 μL) were mixed with inhibitor (6 μL, final concentration was 300, 100, 33.3, 11.1, 3.7, 1.2, 0.4, or 0 μM). Fluorogenic substrate (2 μL, final concentration 5 μM) was immediately added across the plate to initiate the reaction. As a control, each plate contained Compound No. III in this dose response curve. The final concentration of bacterial lysates was fivefold concentrated compared to the original saturated overnight culture. Carryover from DMSO was 4% (v/v). All compounds were tested in singlicate.
6) The plate was loaded into a spectrophotometer preheated to 37° C. The fluorescence was recorded every 2 min for 46 min. The excitation wavelength was 360 nm (20 nm bandwidth), the emission wavelength was 460 nm (20 nm bandwidth), the optics position was bottom, the gain was 65, the light source was a tungsten bulb, and the read speed was normal.
7) The linear portion of the fluorescence increase was 0-20 min. The rate of fluorescence increase (A.U./min) for each well in an inhibitor series was normalized to the 0 μM inhibitor condition. The normalized activity as a function of inhibitor concentration was then fit to a three parameter IC50 curve in Graphpad Prism.
as §1

The target in assay [3] is T1, ClbP. Kind of assay: ClbP whole cell activity (inhibition) assay, fluorogenic substrate. The format is cell-based, E. coli. The method, then:
Whole Cell Activity Assay
as §2, §3
1) The saturated overnight culture was centrifuged to create a firm pellet (3,200 g, 10 min, 4° C.). In a biosafety cabinet, the supernatant was removed and then the pellet was resuspended in 30 mL sterile PBS.
2) The bacteria were centrifuged again (3,200 g, 10 min, 4° C.). The supernatant was removed, and the pellet was resuspended in sterile PBS buffer (6 mL) in each of the 8 tubes. This fivefold concentrated bacterial solution was the working solution.
3) The bacterial working solution (192 μL) was mixed with inhibitor (6 μL, final concentration was 300, 100, 33.3, 11.1, 3.7, 1.2, 0.4, or 0 μM). Fluorogenic substrate (2 μL, final concentration 5 μM) was immediately added across the plate to initiate the reaction. As a control, each plate contained Compound No. III in this dose response curve. The bacterial concentration was fivefold concentrated compared to the original saturated overnight culture. Carryover from DMSO was 4% (v/v). All compounds were tested in singlicate.
4) The plate was loaded into a spectrophotometer preheated to 37° C. The fluorescence was recorded every 2 min for 46 min. The excitation wavelength was 360 nm (20 nm bandwidth), the emission wavelength was 460 nm (20 nm bandwidth), the optics position was bottom, the gain was 65, the light source was a tungsten bulb, and the read speed was normal.
5) The linear portion of the fluorescence increase was 10-30 min. The rate of fluorescence increase (A.U./min) for each well in an inhibitor series was normalized to the 0 μM inhibitor condition. The normalized activity as a function of inhibitor concentration was then fit to a three parameter IC50 curve in Graphpad Prism.
as §1

Structures are written as SMILES.

As a reminder, the IC50 is the concentration that gives 50% inhibition. As to `CCCCCCCC(=O)N[C@H](CC(N)=O)C(=O)N[C@H](C)Cc1ccc(O)cc1` [Compound CCXLV], the concentration for half-maximal inhibition (IC50) in assay [1], in assay [2] and in assay [3] was less than 100 µM each time.

As to `CCCCCCCC(=O)N[C@H](CC(N)=O)C(=O)NCCc1cccnc1` [Compound CCXXX], the half-maximal inhibitory concentration (IC50) in assay [1], in assay [2] and in assay [3] was less than 100 µM each time.

`CCCCCCCC(=O)N[C@H](CC(N)=O)[C@H](O)CCCc1ccccc1` [Compound CXCII]: the values for the IC50 in assay [1], in assay [2] and in assay [3] were 100 to 300 µM, less than 100 µM and greater than 300 µM, respectively.

Take `CCCCCCCC(=O)N[C@H](CC(N)=O)C(=O)NCCc1ccccc1` [Compound III]: the IC50 in assay [1], in assay [2] and in assay [3] was less than 100 µM throughout.

As to `CCCCCCCC(=O)N[C@H](CC(N)=O)C(=O)c1nccn1Cc1ccccc1` [Compound CCLVIII], the IC50 is 100 to 300 µM in assay [1], greater than 300 µM in assay [2] and greater than 300 µM in assay [3].

With `NC(=O)C[C@@H](NC(=O)/C=C/CC1CCCC1)C(=O)NCCc1ccccc1` [Compound CCLXII], the concentration for half-maximal inhibition (IC50) in assay [1] is less than 100 µM; in assay [2], greater than 300 µM; in assay [3], greater than 300 µM.

For `CCCCCCCC(N[C@H](CC(N)=O)C(=O)NCCc1ccccc1)C(F)(F)F` (stereo partly drawn) [Compound CCXIV], the half-maximal inhibitory concentration (IC50) in assay [1] was less than 100 µM; in assay [2], greater than 300 µM; in assay [3], greater than 300 µM.

For `CCCCCCCCCC(=O)N[C@H](CC(N)=O)C(=O)NCCc1ccc(O)cc1` [Compound CCXXI], the IC50 in assay [1], in assay [2] and in assay [3] was less than 100 µM throughout.

With `CCCCCCCC(=O)N[C@H](CC(=O)NC)C(=O)NCCc1ccccc1` [Compound CCXVI], the IC50 in assay [1] is 100 to 300 µM; in assay [2] it was 100 to 300 µM; in assay [3] it was less than 100 µM.

Take `O=C(C[C@@H](NC(=O)CCC1CCCCC1)C(=O)NCCc1ccc(O)cc1)NO` [Compound CCXCV]: the IC50 in assay [1], in assay [2] and in assay [3] was less than 100 µM throughout.

With `NC(=O)C[C@@H](NC(=O)CCCC1CCNCC1)C(=O)NCCc1ccc(O)cc1` [Compound CCLII], the results for the concentration for half-maximal inhibition (IC50) in assay [1], in assay [2] and in assay [3] were 100 to 300 µM, greater than 300 µM and greater than 300 µM, respectively.

For the compound `CCCCCCCC(=O)N[C@H](CC(N)=O)C(=O)NCCc1ccc(Cl)cc1` [Compound CXCIV], the IC50 in assay [1], in assay [2] and in assay [3] was less than 100 µM each time.

Consider `CCCCCCCC(=O)N[C@H](CC(N)=O)C(=O)NCCc1ccco1` [Compound CCXXXI], for which the IC50 in assay [1], in assay [2] and in assay [3] was less than 100 µM in each case.

For the compound `CC(=O)N[C@H](CC(N)=O)C(=O)NCCc1ccccc1` [Compound CCLXV], the figures for the IC50 in assay [1], in assay [2] and in assay [3] were 100 to 300 µM, greater than 300 µM and greater than 300 µM, respectively.

Turning to `O=C(C[C@@H](NC(=O)CCCC1CCCCC1)C(=O)NCCc1ccc(O)cc1)NO` [Compound CCXCVI], the 50% inhibitory concentration (IC50) in assay [1], in assay [2] and in assay [3] was less than 100 µM throughout.

For `CCCCCCCC(=O)N[C@H](CC(N)=O)CN(C)CCc1ccccc1` [Compound XVI], the IC50 in assay [1] was less than 100 µM; in assay [2], less than 100 µM; in assay [3], greater than 300 µM.

As to `CCCCCC(=O)N[C@H](CC(N)=O)C(=O)NCCc1ccc(C(F)(F)F)cc1` [Compound CCLXXV], the IC50 is less than 100 µM in assay [1], greater than 300 µM in assay [2] and greater than 300 µM in assay [3].

As for `O=C(/C=C/C1CCCCC1)N[C@H](CC(=O)NO)C(=O)NCCc1ccc(O)cc1` [Compound CCXCIV], the IC50 in assay [1], in assay [2] and in assay [3] was less than 100 µM in each case.

Take `CCCCCCCC(=O)N[C@H](CC(N)=O)C(=O)NCc1ccccc1` [Compound CCI]: the IC50 in assay [1], in assay [2] and in assay [3] was less than 100 µM throughout.

Consider `CCCCCCCC(=O)N[C@H](CC(N)=O)C(=O)N(CCc1ccc(O)cc1)C(C)C` [Compound CCLXXVI], for which the IC50 was less than 100 µM in assay [1], less than 100 µM in assay [2] and greater than 300 µM in assay [3].

Turning to `NC(=O)C[C@@H](NC(=O)CCC1CCCC1)C(=O)NCCc1ccccc1` [Compound CCL], the half-maximal inhibitory concentration (IC50) in assay [1], in assay [2] and in assay [3] was less than 100 µM in each case.

`CNCCCCCC(=O)N[C@H](CC(N)=O)C(=O)NCCc1ccc(O)cc1` [Compound CCC]: the IC50 in assay [1], in assay [2] and in assay [3] was greater than 300 µM each time.

As to `NC(=O)C[C@@H](NC(=O)/C=C/CC1CCCCCC1)C(=O)NCCc1ccc(O)cc1` [Compound CCXL], the IC50 in assay [1], in assay [2] and in assay [3] was less than 100 µM each time.

In the case of `CCCCCCCC(=O)N[C@H](CC(N)=O)C(=O)NCCc1ccc(OC)cc1` [Compound CXCIX], the IC50 in assay [1], in assay [2] and in assay [3] was less than 100 µM in each case.

With `CCCCCCCC(=O)N[C@H](CC(=O)NOC)C(=O)NCCc1ccc(O)cc1` [Compound CCLXXXV], the IC50 was less than 100 µM in assay [1], 100 to 300 µM in assay [2] and 100 to 300 µM in assay [3].

Turning to `CCCCCCCC(=O)N[C@H](CC(N)=O)C(=O)N(C)CCc1ccc(O)cc1` [Compound CCLXXVII], the IC50 in assay [1], in assay [2] and in assay [3] was less than 100 µM each time.

For the compound `CCCCCCCC(=O)N[C@H](CC(N)=O)c1ncnn1Cc1ccccc1` [Compound CCCXII], the 50% inhibitory concentration (IC50) in assay [1], in assay [2] and in assay [3] was greater than 300 µM each time.

For `CCCCCCCCCC(=O)N[C@@H]1CC(=O)NC1(O)C(=O)NCc1ccccc1` (stereo partly drawn) [Compound […]], the 50% inhibitory concentration (IC50) is less than 100 µM in assay [1], 100 to 300 µM in assay [2] and 100 to 300 µM in assay [3].
